Measurements as given in patent US7442776B2, “Cancerous disease modifying antibodies” (priority 1999, dated 2008).

Assays:
Design in all cases: key to the marks not given beside the values
Settings in all cases: purified antibody or control, 5 days incubation, calcein; four experiments in triplicate
[1] = test system: MCF-7 breast cancer cell line
[2] = test system: SW1116 colon cancer cell line
[3] = test system: PC-3 prostate cancer cell line
[4] = test system: CCD-27sk non-cancer cell line
[5] = test system: Hs888.Lu non-cancer cell line
[6] = test system: MDA-MB-231 (MB-231) breast cancer cell line; test: Live/Dead cytotoxicity assay
[7] = test system: MDA-MB-468 (MB-468) breast cancer cell line; test: Live/Dead cytotoxicity assay
[8] = test system: HT-29 colon cancer cell line; test: Live/Dead cytotoxicity assay
[9] = test system: SW620 colon cancer cell line; test: Live/Dead cytotoxicity assay
[10] = test system: NCI-H460 lung cancer cell line; test: Live/Dead cytotoxicity assay
[11] = test system: OVCAR-3 ovarian cancer cell line; test: Live/Dead cytotoxicity assay

Structure (SMILES)	In Vitro Cytotoxicity, MCF-7 [1]	In Vitro Cytotoxicity, SW1116 [2]	In Vitro Cytotoxicity, PC-3 [3]	In Vitro Cytotoxicity, CCD 27sk [4]	In Vitro Cytotoxicity, Hs888 Lu [5]	In Vitro Cytotoxicity, MB-231 [6]	In Vitro Cytotoxicity, MB-468 [7]	In Vitro Cytotoxicity, HT-29 [8]	In Vitro Cytotoxicity, SW620 [9]	In Vitro Cytotoxicity, NCI H460 [10]	In Vitro Cytotoxicity, OVCAR [11]
C[C@@H]1C[C@@H]([C@H](O)CC2CC(=O)NC(=O)C2)C(=O)[C@@H](C)C1 [CHX, Cycloheximide]	+++	+++	+++	+++	+++	++	+++	+++	++	++	+++
[N-]=[N+]=[N-].[Na+] [NaN3]	+++	++	+++	–	–	+++	+++	+++	–	+++	+++
